Patent US20240124504A1, “AROMATIC HETEROCYCLIC COMPOUND, AND PHARMACEUTICAL COMPOSITION AND APPLICATION THEREOF” (GT APEIRON THERAPEUTICS LIMITED, priority 2020, published 2024)

Molecular target: CDK7/cyclinH/MAT1 complex (Homo sapiens, UniProt P50613)
Experiment: In-vitro enzymatic inhibitory activity testing, CDK7 inhibition assay (Caliper EZ Reader II)
Format: biochemical
Conditions: CDK7/cyclinH/MAT1 6 nM, 180 min at 27° C.
Outline: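 Enzyme preincubated 10 min with compound, then peptide substrate plus ATP added in 80 mM MES pH 6.5, 10 mM MgCl2 buffer; 180 min at 27 °C, stopped with EDTA.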

Chain of CDK7/cyclinH/MAT1 complex (P50613 whole entry, species assumed): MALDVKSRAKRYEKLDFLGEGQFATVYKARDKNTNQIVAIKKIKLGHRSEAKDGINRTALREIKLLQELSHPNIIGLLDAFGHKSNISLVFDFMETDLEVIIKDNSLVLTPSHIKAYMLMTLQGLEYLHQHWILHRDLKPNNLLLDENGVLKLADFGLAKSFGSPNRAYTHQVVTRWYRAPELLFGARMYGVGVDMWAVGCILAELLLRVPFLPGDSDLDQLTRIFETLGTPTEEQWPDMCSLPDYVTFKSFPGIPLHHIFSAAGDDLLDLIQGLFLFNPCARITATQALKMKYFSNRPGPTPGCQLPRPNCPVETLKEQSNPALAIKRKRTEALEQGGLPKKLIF
Chain of CDK7/cyclinH/MAT1 complex (P51946 whole entry partner, species assumed): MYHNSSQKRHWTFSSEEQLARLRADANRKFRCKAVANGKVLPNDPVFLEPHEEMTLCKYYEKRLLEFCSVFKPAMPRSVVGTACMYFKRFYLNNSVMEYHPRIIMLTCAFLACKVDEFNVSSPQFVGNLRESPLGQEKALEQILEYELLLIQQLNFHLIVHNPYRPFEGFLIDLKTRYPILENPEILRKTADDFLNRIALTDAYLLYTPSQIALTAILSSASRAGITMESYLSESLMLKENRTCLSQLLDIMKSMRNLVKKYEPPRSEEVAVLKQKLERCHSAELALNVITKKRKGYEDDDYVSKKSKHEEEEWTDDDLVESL
Chain of CDK7/cyclinH/MAT1 complex (P51948 whole entry partner, species assumed): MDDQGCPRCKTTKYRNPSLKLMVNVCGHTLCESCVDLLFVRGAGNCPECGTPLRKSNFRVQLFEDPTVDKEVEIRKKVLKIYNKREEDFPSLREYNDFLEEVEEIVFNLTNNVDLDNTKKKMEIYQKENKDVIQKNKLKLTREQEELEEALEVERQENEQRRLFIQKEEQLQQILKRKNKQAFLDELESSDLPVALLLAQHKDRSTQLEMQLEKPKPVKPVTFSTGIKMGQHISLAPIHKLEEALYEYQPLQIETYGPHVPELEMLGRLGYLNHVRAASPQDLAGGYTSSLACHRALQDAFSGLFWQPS

Row | SMILES | IC50 [µM]
1 | CC1(C)COCC(Nc2ncc(C(F)(F)F)c(-c3c[nH]c4c(P(C)(C)=O)cccc34)n2)CN1 (single isomer, unassigned) [Compound 91, (3-(2-((3,3-dimethyl-1,4-oxazepan-6-yl)amino)-5-(trifluoromethyl)pyrimidin-4-yl)-1H-indole-7-yl)dimethylphosphine oxide] | < 0.02
2 | CC(O)[C@H](C)Nc1ncc(C(F)(F)F)c(-c2c[nH]c3c(P(C)(C)=O)cccc23)n1 (single isomer, unassigned) [Compound 129] | < 0.02
3 | CC(O)[C@H](C)Nc1ncc(C(F)(F)F)c(-c2c[nH]c3c(P(C)(C)=O)cccc23)n1 (single isomer, unassigned) [Compound 130] | < 0.02
4 | CP(C)(=O)c1cccc2c(-c3nc(NCC4CC4CO)ncc3C(F)(F)F)c[nH]c12 (single isomer, unassigned) [Compound 143] | < 0.02
5 | CC(CO)CNc1ncc(C(F)(F)F)c(-c2c[nH]c3c(P(C)(C)=O)cccc23)n1 (single isomer, unassigned) [Compound 149] | < 0.02
6 | C[C@@H](CO)Nc1ncc(C(F)(F)F)c(-c2c[nH]c3c(P(C)(C)=O)c(C#N)ccc23)n1 [Compound 79, (S)-7-(dimethylphosphoryl)-3-(2-((1-hydroxy-propan-2-yl)amino)-5-(trifluoromethyl)pyrimidin-4-yl)-1H-indole-6-carbonitrile] | < 0.02
7 | CP(C)(=O)c1cccc2c(-c3nc(N[C@H]4CC[C@H](O)C4)ncc3C(F)(F)F)c[nH]c12 [Compound 83] | < 0.02
8 | CP(C)(=O)c1cccc2c(-c3nc(NC[C@H](F)CO)ncc3C(F)(F)F)c[nH]c12 [Compound 86, (S)-(3-(2-((2-fluoro-3-hydroxypropyl)amino)-5-(trifluoromethyl)pyrimidin-4-yl)-1H-indole-7-yl)dimethylphosphine oxide] | < 0.02
9 | CC[C@@H](CO)Nc1ncc(C(F)(F)F)c(-c2c[nH]c3c(P(C)(C)=O)cccc23)n1 [Compound 88, (S)-(3-(2-((1-hydroxybutan-2-yl)amino)-5-(trifluoromethyl)pyrimidin-4-yl)-1H-indole-7-yl)dimethylphosphine oxide] | < 0.02
10 | CP(C)(=O)c1cccc2c(-c3nc(NCC(F)(F)CO)ncc3C(F)(F)F)c[nH]c12 [Compound 102, (3-(2-((2,2-difluoro-3-hydroxypropyl)amino)-5-(trifluoromethyl)pyrimidin-4-yl)-1H-indole-7-yl)dimethylphosphine oxide] | < 0.02
11 | C[C@@H](CO)Nc1ncc(Cl)c(-c2c[nH]c3c(P(C)(C)=O)cccc23)n1 [Compound 103, (S)-(3-(5-chloro-2-((1-hydroxypropan-2-yl)amino)pyrimidin-4-yl)-1H-indole-7-yl)dimethylphosphine oxide] | 0.02 to 0.2
12 | CP(C)(=O)c1cccc2c(-c3nc(NCC4CC(O)C4)ncc3C(F)(F)F)c[nH]c12 (centres unmarked) [Compound 126, (3-(2-(((3-hydroxycyclobutyl)methyl)amino)-5-(trifluoromethyl)pyrimidin-4-yl)-1H-indole-7-yl)dimethylphosphine oxide] | < 0.02
13 | CN(C)[C@H]1CC[C@H](Nc2ncc(C(F)(F)F)c(-c3c[nH]c4c(P(C)(C)=O)cccc34)n2)C1 [Compound 137, (3-(2-(((1S,3S)-3-(dimethylamino)cyclopentyl)amino)-5-(trifluoromethyl)pyrimidin-4-yl)-1H-indole-7-yl)dimethylphosphine oxide] | < 0.02
14 | CP(C)(=O)c1cccc2c(-c3nc(N[C@@H]4CC[C@H]4O)ncc3C(F)(F)F)c[nH]c12 [Compound 153, (3-(2-(((1R,2R)-2-hydroxycyclobutyl)amino)-5-(trifluoromethyl)pyrimidin-4-yl)-1hydro-indole-7-yl)dimethylphosphine oxide] | < 0.02
15 | CP(C)(=O)c1cccc2c(-c3nc(N[C@H]4CC[C@@H]4O)ncc3C(F)(F)F)c[nH]c12 [Compound 154, (3-(2-(((1S,2S)-2-hydroxycyclobutyl)amino)-5-(trifluoromethyl)pyrimidin-4-yl)-1hydro-indole-7-yl)dimethylphosphine oxide] | < 0.02
16 | CP(C)(=O)c1cccc2c(-c3nc(N[C@H]4CCC[C@@H]4O)ncc3C(F)(F)F)c[nH]c12 [Compound 155, (3-(2-(((1S,2S)-2-hydroxycyclopentyl)amino)-5-(trifluoromethyl)pyrimidin-4-yl)-1hydro-indole-7-yl)dimethylphosphine oxide] | < 0.02
17 | CP(C)(=O)c1cccc2c(-c3nc(N[C@@H]4CCC[C@H]4O)ncc3C(F)(F)F)c[nH]c12 [Compound 156] | 0.02 to 0.2
18 | C[C@@H](CO)Nc1ncc(C(F)(F)F)c(-c2c[nH]c3c(P(C)(C)=O)cc(F)cc23)n1 [Compound 158] | < 0.02
19 | C[C@@H](CO)Nc1ncc(C#N)c(-c2c[nH]c3c(P(C)(C)=O)cccc23)n1 [Compound 179, (S)-4-(7-(dimethylphosphoryl)-1H-indole-3-yl)-2-((1-hydroxypropan-2-yl)amino)pyrimidine-5-carbonitrile] | < 0.02
20 | C[C@@H](CO)Nc1ncc(C(F)(F)F)c(-c2c[nH]c3c(P(C)(C)=O)c(F)ccc23)n1 [Compound 195] | < 0.02

Further lines, results first:

Row | IC50 [µM] | SMILES
21 | < 0.02 | CP(C)(=O)c1cccc2c(-c3nc(NC4(CO)CCOC4)ncc3C(F)(F)F)c[nH]c12 (single isomer, unassigned) [Compound 118]
22 | 0.02 to 0.2 | CP(C)(=O)c1cccc2c(-c3nc(NC4(CO)CCOC4)ncc3C(F)(F)F)c[nH]c12 (single isomer, unassigned) [Compound 119]
23 | < 0.02 | C[C@@H](CO)Nc1ncc(C(F)(F)F)c(-c2c[nH]c3c(P(C)(C)=O)cccc23)n1 [Compound 82, (S)-(3-(2-((1-hydroxypropyl-2-yl)amino)-5-(trifluoromethyl)pyrimidin-4-yl)-1H-indole-7-yl)dimethylphosphine oxide]
24 | < 0.02 | CC(C)(CO)Nc1ncc(C(F)(F)F)c(-c2c[nH]c3c(P(C)(C)=O)cccc23)n1 [Compound 85, (3-(2-((1-hydroxy-2-methylpropan-2-yl)amino)-5-(trifluoromethyl)pyrimidin-4-yl)-1H-indole-7-yl)dimethylphosphine oxide]
25 | < 0.02 | CP(C)(=O)c1cccc2c(-c3nc(N[C@H]4COC[C@@H]4O)ncc3C(F)(F)F)c[nH]c12 [Compound 87]
26 | < 0.02 | CP(C)(=O)c1cccc2c(-c3nc(NCCCO)ncc3C(F)(F)F)c[nH]c12 [Compound 89, (3-(2-((3-hydroxypropyl)amino)-5-(trifluoromethyl)pyrimidin-4-yl)-1H-indole-7-yl)dimethylphosphine oxide]
27 | < 0.02 | C[C@H](CO)Nc1ncc(C(F)(F)F)c(-c2c[nH]c3c(P(C)(C)=O)cccc23)n1 [Compound 93, (R)-(3-(2-((1-hydroxypropyl-2-yl)amino)-5-(trifluoromethyl)pyrimidin-4-yl)-1H-indole-7-yl)dimethylphosphine oxide]
28 | 0.02 to 0.2 | CP(C)(=O)c1cccc2c(-c3nc(NC4(CO)CC4)ncc3C(F)(F)F)c[nH]c12 [Compound 94, (3-(2-((1-(hydroxymethyl)cyclopropyl)amino)-5-(trifluoromethyl)pyrimidin-4-yl)-1H-indole-7-yl)dimethylphosphine oxide]
29 | 0.02 to 0.2 | CP(C)(=O)c1cccc2c(-c3nc(NC4(CO)CC(F)(F)C4)ncc3C(F)(F)F)c[nH]c12 [Compound 96, (3-(2-((3,3-difluoro-1-(hydroxymethyl)cyclobutyl)amino)-5-(trifluoromethyl)pyrimidin-4-yl)-1H-indole-7-yl)dimethylphosphine oxide]
30 | < 0.02 | CP(C)(=O)c1cccc2c(-c3nc(NCCO)ncc3C(F)(F)F)c[nH]c12 [Compound 97, (3-(2-((2-hydroxyethyl)amino)-5-(trifluoromethyl)pyrimidin-4-yl)-1H-indole-7-yl)dimethylphosphine oxide]
31 | 0.02 to 0.2 | CP(C)(=O)c1cccc2c(-c3nc(NC4(CO)CC(F)C4)ncc3C(F)(F)F)c[nH]c12 (centres unmarked) [Compound 105, (3-(2-((3-fluoro-1-(hydroxymethyl)cyclobutyl)amino)-5-(trifluoromethyl)pyrimidin-4-yl)-1H-indole-7-yl)dimethylphosphine oxide]
32 | < 0.02 | CP(C)(=O)c1cccc2c(-c3nc(NC4(CO)COC4)ncc3C(F)(F)F)c[nH]c12 [Compound 114, (3-(2-((3-(hydroxymethyl)oxetan-3-yl)amino)-5-(trifluoromethyl)pyrimidin-4-yl)-1H-indole-7-yl)dimethylphosphine oxide]
33 | < 0.02 | CP(C)(=O)c1cccc2c(-c3nc(NC[C@H]4C[C@](C)(O)C4)ncc3C(F)(F)F)c[nH]c12 [Compound 127, (3-(2-(((trans-3-hydroxy-3-methylcyclobutyl)methyl)amino)-5-(trifluoromethyl)pyrimidin-4-yl)-1H-indole-7-yl)dimethylphosphine oxide]
34 | < 0.02 | CP(C)(=O)c1cccc2c(-c3nc(NC4(CO)CCC4)ncc3C(F)(F)F)c[nH]c12 [Compound 168, (3-(2-((1-(hydroxymethyl)cyclobutyl)amino)-5-(trifluoromethyl)pyrimidin-4-yl)-1H-indole-7-yl)dimethylphosphine oxide]
35 | < 0.02 | CP(C)(=O)c1cccc2c(-c3nc(NC45CC(O)(C4)C5)ncc3C(F)(F)F)c[nH]c12 [Compound 174, (3-(2-((3-hydroxybicyclo[1.1.1]pentan-1-yl)amino)-5-(trifluoromethyl)pyrimidin-4-yl)-1H-indole-7-yl)dimethylphosphine oxide]

Test system: Caco-2 cells
Experiment: Caco-2 membrane permeability and efflux rate
Format: in vitro ADME
Conditions: Caco-2, 5 μM, 2 hours
Outline: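 Caco-2 monolayers after 14-18 days' culture; compound at 5 μM final in HBSS (10 mM HEPES, pH 7.4), apical-to-basal and basal-to-apical, 2 h at 37° C. LC/MS/MS gives Papp (10-6 cm/s) and efflux ratio; lucifer yellow checks monolayer integrity.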

Row | ER (efflux rate) | SMILES
36 | 15.3 | CP(C)(=O)c1cccc2c(-c3nc(NC4(CO)CCOC4)ncc3C(F)(F)F)c[nH]c12 (single isomer, unassigned) [Compound 119]
37 | 6.03 | CC(O)[C@H](C)Nc1ncc(C(F)(F)F)c(-c2c[nH]c3c(P(C)(C)=O)cccc23)n1 (single isomer, unassigned) [Compound 130]

Same assay, conditions: Caco-2, 5 μM, 2 hours, basal end to top end

Row | Papp(B-A) | SMILES
38 | 34.09 10^−6, cm/s | CP(C)(=O)c1cccc2c(-c3nc(NC4(CO)CCOC4)ncc3C(F)(F)F)c[nH]c12 (single isomer, unassigned) [Compound 119]
39 | 35.08 10^−6, cm/s | CC(O)[C@H](C)Nc1ncc(C(F)(F)F)c(-c2c[nH]c3c(P(C)(C)=O)cccc23)n1 (single isomer, unassigned) [Compound 130]

Same assay, conditions: Caco-2, 5 μM, 2 hours, top end to basal end

Row | Papp(A-B) | SMILES
40 | 2.23 10^−6, cm/s | CP(C)(=O)c1cccc2c(-c3nc(NC4(CO)CCOC4)ncc3C(F)(F)F)c[nH]c12 (single isomer, unassigned) [Compound 119]
41 | 5.82 10^−6, cm/s | CC(O)[C@H](C)Nc1ncc(C(F)(F)F)c(-c2c[nH]c3c(P(C)(C)=O)cccc23)n1 (single isomer, unassigned) [Compound 130]
